These results are taken from patent publication US10483329B2, “Hole transporting material, hole transporting layer, OLED display panel electronic device comprising the same” (SHANGHAI TIANMA AM-OLED CO., LTD., priority 2016, dated 2019).

In brackets after ≈: the same amount, converted by molar mass.

A short description of this series: Solubility in NMP. The series is classed as physicochemical. The settings on record: organic solvent or mixture; solvent NMP (N-methylpyrrolidone).

For `CC1(C)c2cc(N(c3ccc(-c4ccccc4)cc3)c3ccc(-c4ccccc4)cc3)ccc2-c2ccc(N(c3ccc(-c4ccccc4)cc3)c3ccc(-c4ccccc4)cc3)cc21` [Comparison Example 2, reference compound], the solubility was found to be 5.2 mg/mL (≈ 6.24 mM).

Take `Cc1cccc(C)c1-c1ccc(N(c2ccc(-c3ccccc3)cc2)c2ccc(-c3ccc(N(c4ccc(-c5ccccc5)cc4)c4ccc(-c5c(C)cccc5C)cc4)cc3)cc2)cc1` [Comparison Example 3, reference compound]: the solubility was 2.9 mg/mL (≈ 3.42 mM).

On to `c1ccc(-c2ccc(N(c3ccc(-c4ccccc4)cc3)c3ccc(N(c4ccc(-c5ccccc5)cc4)c4ccc(-c5ccccc5)cc4)cc3)cc2)cc1` [Comparison Example 4, reference compound], for which the solubility was determined as 2.2 mg/mL (≈ 3.07 mM).

As for `Cc1cc(-c2ccc(N(c3ccc(-c4ccccc4)cc3)c3ccc4c(c3)C(C)(C)c3ccccc3-4)cc2)cc(C)c1N(c1ccc(-c2ccccc2)cc1)c1ccc2c(c1)C(C)(C)c1ccccc1-2` [Example 1], the solubility worked out at 22 mg/mL (≈ 24.4 mM).

In the case of `Cc1cccc(-c2ccc(N(c3ccc(-c4cccc(C)c4)cc3)c3ccc4c(c3)C(C)(C)c3cc(N(c5ccc(-c6cccc(C)c6)cc5)c5ccc(-c6cccc(C)c6)cc5)ccc3-4)cc2)c1` [Example 2], the solubility was 28 mg/mL (≈ 31.5 mM).

In the case of `Cc1cccc(C)c1-c1ccc(N(c2ccc3c(c2)C(C)(C)c2ccccc2-3)c2ccc3c(c2)C(C)(C)c2cc(N(c4ccc(-c5c(C)cccc5C)cc4)c4ccc5c(c4)C(C)(C)c4ccccc4-5)ccc2-3)cc1` [Example 3], the solubility worked out at 30 mg/mL (≈ 30.9 mM).

In the case of `Cc1cc(N(c2ccc3c(c2)C(C)(C)c2ccccc2-3)c2ccc3c(c2)C(C)(C)c2ccccc2-3)ccc1-c1ccc(N(c2ccc3c(c2)C(C)(C)c2ccccc2-3)c2ccc3c(c2)C(C)(C)c2ccccc2-3)cc1` [Example 4], the solubility came out at 35 mg/mL (≈ 36.2 mM).

As a reminder, the solubility is the dissolved amount per volume that the medium holds.
